In patent US5596016A, “1,2-disubstituted aromatic chelates” (Albion International, Inc., priority 1994, dated 1997):
“Also recorded” adds a separate entry of the source.

Tests used:
[1] = Iron excretion after oral dosing, sample weighed in grams (Table 2, headed Urine; evidently feces); type: in vivo, rats; settings: for Urine: Total Mg Fe (per Total Gm Sample): oral, one gram sample of 15% iron
Experimental: (§1) Bioavailability: One gram samples of each of the above iron vanillin chelates and ferrous sulfate sales were administered orally to rats as a slurry consisting of one gram of sample contained in 4 ml of water. The samples were given via a syringe fitted with a balled needle and injected into the stomach of the animals. Each one gram sample of 15% iron would deliver 150 mg of Fe which is ten times the recommended daily allowance of iron for a human being of average size. Obviously, such a dosage is many times higher than required for the test animals considering that the rats weighed an average of about 125 grams each. One sample of two grams of chelate suspended as a slurry in 8 ml of water was found too be too much volume and overfilled the stomach of the rat resulting in the loss of some of the dosage.
(§2) The animals were observed over a two day (48 hour) period and their urine and feces were collected. At the end of the 48 hour period the animals were sacrificed and blood samples were taken.
(§3) There follows a comparison of the urine, feces and blood tests taken from the rats at 24 and 48 hours post dosage.

[2] = Iron excretion in urine after oral dosing, sample in ml (Table 3); type: in vivo, rats; settings: one gram sample of 15% iron
Experimental: as §1, §2, §3

Rats = assay: Observation of rats over 48 hours after oral dosing; type: in vivo
Experimental: as §1, §2

Urine: Total Mg Fe (per Total Gm Sample) ([1]; 24 hours): 1.18 Mg Fe
Urine: Total Mg Fe (per Total Gm Sample) ([1]; 48 hours): 61.6 Mg Fe
Urine: Total Mg Fe (per Total Ml Sample) ([2]; 24 hours): 0.020 Mg Fe
Urine: Total Mg Fe (per Total Ml Sample) ([2]; 48 hours): 0.010 Mg Fe
time without food or water consumption post dosage (Rats; one gram sample of 15% iron, oral): approximately 26 hours
time to hematuria following dosage (Rats; one of the ferrous sulfate fed rats): ≤ 2.5 h
Substance: ferrous sulfate [FeSO4]
excretion of iron in the feces ([1]; after 48 hours, versus iron vanillate): much higher excretion of iron in the feces
appearance and behavior of rats (Rats; 48 hour period, one gram sample of 15% iron, oral): appeared listless and produced little urine and feces; also recorded: listless, non-reactive, retired and demonstrated abnormal breathing behavior
